According to ChEMBL document CHEMBL4765436, “Discovery, structure-activity relationship study and biological evaluation of 2-thioureidothiophene-3-carboxylates as a novel class of C-X-C chemokine receptor 2 (CXCR2) antagonists” (Eur J Med Chem, 2020):

What was measured:
[1] = biological target: T1, C-X-C chemokine receptor type 2 (Homo sapiens, UniProt P25025); experiment: Antagonist activity at CXCR2 (unknown origin) expressed in U2OS cells cotransfected with beta-arrestin/TEV protease fusion protein and beta-lactamase assessed as inhibition of CXCL8-induced beta arrestin2 recruitment preincubated for 30 mins followed by CXCL8 stimulation and measured after 5 hrs by FRET based fluorescence/Tango assay; assay type: cell-based
T1 sequence (P25025 whole entry): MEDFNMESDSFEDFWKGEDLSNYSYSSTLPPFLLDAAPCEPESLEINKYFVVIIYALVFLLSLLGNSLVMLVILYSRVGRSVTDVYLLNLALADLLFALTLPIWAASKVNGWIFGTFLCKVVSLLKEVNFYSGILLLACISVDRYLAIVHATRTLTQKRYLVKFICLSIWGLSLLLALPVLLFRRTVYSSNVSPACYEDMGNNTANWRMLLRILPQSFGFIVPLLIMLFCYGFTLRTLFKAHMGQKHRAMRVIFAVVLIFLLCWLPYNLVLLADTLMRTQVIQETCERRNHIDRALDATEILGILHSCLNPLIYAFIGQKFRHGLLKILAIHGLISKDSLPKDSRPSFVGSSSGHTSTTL

[2] = biological target: C-X-C chemokine receptor type 4 (Homo sapiens, UniProt P61073); experiment: Antagonist activity at CXCR4 (unknown origin) expressed in U2OS cells cotransfected with beta-arrestin/TEV protease fusion protein and beta-lactamase assessed as inhibition of SDF1-alpha-induced beta arrestin2 recruitment preincubated for 30 mins followed by SDF1-alpha stimulation and measured after 5 hrs by FRET based fluorescence/Tango assay
Chain of C-X-C chemokine receptor type 4 (P61073 whole entry, the tested form may be a part): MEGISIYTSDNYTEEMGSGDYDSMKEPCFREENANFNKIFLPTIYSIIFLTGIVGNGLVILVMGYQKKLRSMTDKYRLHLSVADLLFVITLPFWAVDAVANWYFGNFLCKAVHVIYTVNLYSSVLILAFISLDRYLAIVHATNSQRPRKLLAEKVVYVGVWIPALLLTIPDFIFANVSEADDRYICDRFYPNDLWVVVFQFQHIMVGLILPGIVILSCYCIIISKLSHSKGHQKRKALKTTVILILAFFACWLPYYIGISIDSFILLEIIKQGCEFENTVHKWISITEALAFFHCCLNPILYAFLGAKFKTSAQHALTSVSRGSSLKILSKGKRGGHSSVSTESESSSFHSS

| Structure (SMILES) | IC50 [1] [µM] | IC50 [2] [µM] |
| --- | --- | --- |
| CC(C)(C)OC(=O)c1c(NC(=S)Nc2ccccc2)sc2c1CCOC2 | 2.3 | > 30 |
| CC1CCCc2sc(NC(=S)Nc3ccccc3)c(C(=O)O)c21 (stereo unspecified) | 6.7 | > 10 |
| CCOC(=O)c1c(NC(=S)NCc2ccccc2)sc2c1C(C)CCC2 (stereo unspecified) | 6.7 | > 20 |
| CCOC(=O)c1c(NC(=S)Nc2ccc(F)cc2)sc2c1C(C)CCC2 (stereo unspecified) | 2.1 | 11.7 |
| CCOC(=O)c1c(NC(=S)NC(=O)c2ccccc2)sc2c1C(C)CCC2 (stereo unspecified) | > 10 | > 10 |
| CCOC(=O)c1c(NC(=S)Nc2ccccc2F)sc2c1C(C)CCC2 (stereo unspecified) | 7.5 | 12 |
| COc1ccc(NC(=S)Nc2sc3c(c2C(=O)OC(C)(C)C)CCOC3)cc1OC | 3.4 | > 10 |
| CC1CCCc2sc(NC(=S)Nc3ccc(OC(C)(C)C)cc3)c(C(=O)OC(C)(C)C)c21 (stereo unspecified) | 6.8 | > 10 |
| CCOC(=O)c1c(NC(=S)Nc2ccc(OC)cc2)sc2c1C(C)CCC2 (stereo unspecified) | 4.4 | 11.5 |
| CCOC(=O)c1c(NC(=S)Nc2ccccc2)sc2c1C(C)CCC2 (stereo unspecified) | 6.4 | > 10 |
| CC(C)(C)OC(=O)c1c(NC(=S)Nc2ccccc2)sc2c1CCNC2 | 8.7 | > 10 |
| C[C@H](NC(=S)Nc1sc2c(c1C(=O)OC(C)(C)C)CCOC2)c1ccccc1 | 2.4 | > 30 |
| CC1CCCc2sc(NC(=S)Nc3ccccc3)c(C(=O)NCc3ccccc3)c21 (stereo unspecified) | 2.5 | > 30 |
| CCOC(=O)NC(=S)Nc1sc2c(c1C(=O)OCC)C(C)CCC2 (stereo unspecified) | 8.7 | > 10 |
| CC1CCCc2sc(NC(=S)Nc3ccccc3)c(C(N)=O)c21 (stereo unspecified) | > 30 | > 10 |
| CC(C)(C)OC(=O)c1c(NC(=S)Nc2ccc(OC(F)(F)F)cc2)sc2c1CCOC2 | 1.6 | > 30 |
| CC1CCCc2sc(NC(=S)Nc3ccc4c(c3)OC(F)(F)O4)c(C(=O)OC(C)(C)C)c21 (stereo unspecified) | > 10 | > 10 |
| CCOC(=O)c1c(NC(=S)Nc2ccc(N(C)C)cc2)sc2c1C(C)CCC2 (stereo unspecified) | 3.9 | > 10 |
| CC(C)(C)OC(=O)c1c(NC(=S)Nc2ccccc2)sc2c1CCN(Cc1ccccc1)C2 | > 10 | > 10 |
| CC1CCCc2sc(NC(=S)Nc3ccc(Oc4ccccc4)cc3)c(C(=O)OC(C)(C)C)c21 (stereo unspecified) | > 10 | > 10 |

Other lines, results leading:

| IC50 [1] [µM] | IC50 [2] [µM] | Structure (SMILES) |
| --- | --- | --- |
| > 10 | > 10 | CN1CCc2c(sc(NC(=S)Nc3ccccc3)c2C(=O)OC(C)(C)C)C1 |
| 7 | > 10 | CCOC(=O)c1c(NC(=S)Nc2ccc(C(C)(C)C)cc2)sc2c1C(C)CCC2 (stereo unspecified) |
| 2.7 | > 10 | COc1cccc(NC(=S)Nc2sc3c(c2C(=O)OC(C)(C)C)C(C)CCC3)c1 (stereo unspecified) |
| 2.7 | 9.3 | CC(C)OC(=O)c1c(NC(=S)Nc2ccccc2)sc2c1C(C)CCC2 (stereo unspecified) |
| 1.8 | > 10 | CC(C)(C)OC(=O)c1c(NC(=S)Nc2ccccc2)sc2c1CCCC2 |
| 2 | 14.6 | CCOC(=O)c1c(NC(=S)Nc2ccc(C(F)(F)F)cc2)sc2c1C(C)CCC2 (stereo unspecified) |
| > 10 | > 10 | CCOC(=O)c1c(NC(=S)Nc2cnccn2)sc2c1C(C)CCC2 (stereo unspecified) |
| 3 | 8.9 | CCOC(=O)c1c(NC(=S)Nc2cccc(OC)c2)sc2c1C(C)CCC2 (stereo unspecified) |
| > 10 | > 10 | CC(C)(C)OC(=O)c1c(NC(=S)Nc2ccccc2)sc2c1COC(C)(C)C2 |
| 1.9 | 26.7 | CCOC(=O)c1c(NC(=S)Nc2ccc3c(c2)OC(F)(F)O3)sc2c1C(C)CCC2 (stereo unspecified) |
| > 10 | > 10 | CNC(=O)c1c(NC(=S)Nc2ccccc2)sc2c1C(C)CCC2 (stereo unspecified) |
| 2.2 | 12.7 | CCOC(=O)c1c(NC(=S)Nc2ccc(OC(F)(F)F)cc2)sc2c1C(C)CCC2 (stereo unspecified) |
| 4.1 | > 10 | CC(C)(C)OC(=O)c1c(NC(=S)Nc2ccccc2)sc2c1CCCO2 |
| > 30 | 11.7 | CCOC(=O)c1c(NC(=S)Nc2ccc(O)cc2)sc2c1C(C)CCC2 (stereo unspecified) |
| 7.7 | > 10 | CCOC(=O)c1c(NC(=S)Nc2ccc(OC)c(OC)c2)sc2c1C(C)CCC2 (stereo unspecified) |
| 10.6 | > 10 | CC1CCCc2sc(NC(=S)Nc3ccc(OC(F)(F)F)cc3)c(C(=O)OC(C)(C)C)c21 (stereo unspecified) |
| 2.5 | 11.9 | CC1CCCc2sc(NC(=S)Nc3ccccc3)c(C(=O)OC(C)(C)C)c21 (stereo unspecified) |
| > 30 | > 10 | CCOC(=O)c1c(NC(=S)Nc2ccccc2O)sc2c1C(C)CCC2 (stereo unspecified) |
| 5.7 | > 10 | COc1ccc(NC(=S)Nc2sc3c(c2C(=O)OC(C)(C)C)C(C)CCC3)cc1OC (stereo unspecified) |
| > 10 | > 10 | CC1CCCc2sc(NC(=S)Nc3ccc(N4CCN(C)CC4)cc3)c(C(=O)OC(C)(C)C)c21 (stereo unspecified) |
| > 10 | > 10 | O=C(Nc1ccccc1)c1c(NC(=S)Nc2ccc(F)cc2)sc2c1CCOC2 |
| > 30 | > 10 | CCOC(=O)c1c(NC(=S)Nc2ccc(N)cc2)sc2c1C(C)CCC2 (stereo unspecified) |
| 2.7 | > 10 | CC1CCCc2sc(NC(=S)Nc3ccccc3)c(C(=O)Nc3ccccc3)c21 (stereo unspecified) |
